Data published in patent US9771378B2 (Denali Therapeutics, Inc., priority 2014, dated 2017).

System: Aβ42 (human neuroglioma H4 cells expressing human wild type APP751)
Test: In vitro cell screening assay with sandwich ELISA quantification of Aβ42 peptide
Type: cell-based
Details: H4 cells stably expressing human wild type APP751; Pro293 chemically defined medium; compounds 0.003-10 μM; incubated overnight (16-18 h); supernatant Aβ42 by sandwich ELISA; normalized to DMSO and DAPT; read-out: Aβ42 H4 Prot Fre IC50
Description: Human neuroglioma H4 cells were transfected with a pcDNA3.1 plasmid expressing human wild type APP751 cDNA and a stable cell line was generated using G418 selection. Cells are plated at 15,000 cells/well in Costar 96-well plates and placed at 37° C. and 5% CO2. Six hours after plating, cells are washed three times with Pro293™ chemically defined medium, followed by addition of compounds (0.003-10 μM, final DMSO concentration of 0.33%). Plates were incubated overnight (16-18 h) and supernatant was removed for quantification of AP peptides by sandwich ELISA. Cytotoxicity was evaluated using Cell-Titer 96W AQueous One Solution Cell Proliferation Assay according to the manufacturer's protocol.
ELISA Measurements of Aβ Peptides
Aβ peptide levels were quantified by sandwich ELISA. 96-well plates are coated with C-terminal specific Aβ antibodies recognizing either Aβ37, Aβ38, Aβ40, Aβ42, Aβ43 or a N-terminal specific Aβ antibody to detect Aβ 1-x. Plates are then blocked overnight at 4° C. with 1% bovine serum albumin (BSA) in PBS-T. Plates are washed and 100 μl of cultured cell supernatant or synthetic Aβ peptide standards and a detection antibody (4G8-HRP) are applied to the blocked plate and incubated overnight at 4° C. The next day, wells are washed before the addition […] of detection substrate (TMB peroxidase). Plates are then read for absorbance at 450 nm on a Molecular Devices SpectraMax M5e Microplate Reader.
IC50 values were calculated from values reported as percent of DMSO controls using nonlinear regression, based on a sigmoidal dose-response (variable slope) model. GraphPAD software from Prism used for calculation.

SMILES | IC50
Cc1cc(-c2ccc(Nc3ncc4c(n3)N(C)C(c3cc(F)cc(F)c3)CO4)cc2)ccn1 (racemic) [Example 28] | 0.09 µM
Cc1cn(-c2ccc(Nc3ncc4c(n3)N(C)C(c3ccccc3)CO4)cc2F)cn1 (single isomer, unassigned; (+)) [Example 25A] | 0.014 µM
Cc1cc(-c2ccc(Nc3ncc4c(n3)N(C)C(c3ccccc3)CO4)cc2F)ccn1 (single isomer, unassigned; (+)) [Example 27A] | 0.306 µM
COc1cc(Nc2ncc3c(n2)N(C)C(C2CCC(F)(F)CC2)CO3)cnc1-c1cnn(C)c1 (single isomer, unassigned; (+)) [Example 231A] | 0.342 µM
COc1cc(Nc2ncc3c(n2)N(C)C(c2ccccc2C)CO3)ccc1-n1cnc(C)c1 (single isomer, unassigned; (+)) [Example 31B] | 0.0296 µM
Cc1cc(-c2ccc(Nc3ncc4c(n3)N(C)C(c3ccc(F)cc3Cl)CO4)cc2F)ccn1 (single isomer, unassigned; (-)) [Example 102B] | 1.35 µM
COc1ccc(C)c(C2COc3cnc(Nc4cnc(-n5cnc(C)c5)c(OC)c4)nc3N2C)c1 (single isomer, unassigned; (-)) [Example 207B] | 0.096 µM
COc1cc(Nc2ncc3c(n2)N(C)C(c2cc(F)cc(F)c2)CO3)cnc1-n1cnc(C)c1 (single isomer, unassigned; (+)) [Example 189A] | 0.013 µM
COc1cc(Nc2ncc3c(n2)N(C)C(C2(C(F)(F)F)CC2)CO3)ccc1-n1cnc(C)c1 (single isomer, unassigned; (+)) [Example 245B] | 0.022 µM
COc1cc(Nc2ncc3c(n2)N(C)C(C)CO3)ccc1-n1cnc(Cl)c1 (single isomer, unassigned; (+)) [Example 202B] | 0.063 µM
COc1ccc(C)c(C2COc3cnc(Nc4ccc(-n5cnc(C)c5)c(OC)c4)nc3N2C)c1 (single isomer, unassigned; (+)) [Example 175A] | 0.011 µM
COc1cc(Nc2ncc3c(n2)N(C)C(C(F)(F)F)CO3)ccc1-n1cnc(Cl)c1 (single isomer, unassigned; (-)) [Example 228B] | 0.014 µM
COc1cc(Nc2ncc3c(n2)N(C)C(CC(F)(F)F)CO3)cnc1-n1cnc(C)c1 (single isomer, unassigned; (-)) [Example 238A] | 0.648 µM
Cc1cc(-c2ccc(Nc3ncc4c(n3)N(C)C(c3ccccc3C)CO4)cc2F)ccn1 (single isomer, unassigned; (-)) [Example 32A] | 0.888 µM
COc1cc(Nc2ncc3c(n2)N(C)C(c2cc(F)c(F)c(F)c2)CO3)ccc1-n1cnc(C)c1 (racemic) [Example 40] | 0.02 µM
Cc1cn(-c2ccc(Nc3ncc4c(n3)N(C)C(c3cc(F)cc(F)c3)CO4)cc2OC(F)(F)F)cn1 (single isomer, unassigned; (+)) [Example 223B] | > 3 µM
Cc1cc(-c2ccc(Nc3ncc4c(n3)N(C)C(c3ccc(F)cc3)CO4)cc2F)ccn1 (single isomer, unassigned; (-)) [Example 56B] | 3.46 µM
COc1cc(Nc2ncc3c(n2)N2C(=O)CCC2CO3)cnc1-n1cnc(C)c1 (single isomer, unassigned; (-)) [Example 302B, (−)-2-((5-methoxy-6-(4-methyl-1H-imidazol-1-yl)pyridin-3-yl)amino)-6,6a, 7,8-tetrahydro-9H-pyrimido [5,4-b] pyrrolo [1,2-d] [1, 4] oxazin-9-one] | 2.9 µM
COc1cc(Nc2ncc3c(n2)N(C)[C@@H](c2ccccc2)CO3)ccc1-c1ccnc(C)c1 [Example 21B, (S)—N-(3-methoxy-4-(2-methylpyridin-4-yl)phenyl)-8-methyl-7-phenyl-7,8-dihydro-6H-pyrimido[5,4-b][1,4]oxazin-2-amine] | 0.04 µM
Cc1cc(-c2ccc(Nc3ncc4c(n3)N(C)C(c3cc(F)c(F)c(F)c3)CO4)cc2)ccn1 (racemic) [Example 37] | 0.103 µM
COc1cc(Nc2ncc3c(n2)N(C)C(c2cc(F)cc(F)c2)CO3)ncc1-n1cnc(C)c1 (single isomer, unassigned; (-)) [Example 220A] | > 3 µM
COc1nc(Nc2ncc3c(n2)N(C)C(c2cc(F)cc(F)c2)CO3)ccc1-n1cnc(C)c1 (single isomer, unassigned; (-)) [Example 179A] | > 3 µM
COc1cc(Nc2ncc3c(n2)N2CCC(F)(F)C2CO3)ccc1-n1cnc(C)c1 (single isomer, unassigned; (-)) [Example 304A, (−)-7,7-difluoro-N-(3-methoxy-4-(4-methyl-1H-imidazol-1-yl)phenyl)-6a, 7,8,9-tetrahydro-6H-pyrimido [5,4-b] pyrrolo [1,2-d] [1, 4] oxazin-2-amine] | 0.274 µM

SMILES | IC50
COc1cc(Nc2ncc3c(n2)N(C)C(C(F)(F)F)CO3)ccc1-n1cnc(C)c1 (single isomer, unassigned; (-)) [Example 187B] | 0.033 µM
COc1cc(Nc2ncc3c(n2)N(C)C(C2CCS(=O)(=O)CC2)CO3)ccc1-n1cnc(C)c1 (single isomer, unassigned; (-)) [Example 239A, (−)-4-(2-((3-methoxy-4-(4-methyl-1H-imidazol-1-yl)phenyl)amino)-8-methyl-7,8-dihydro-6H-pyrimido [5,4-b] [1, 4]oxazin-7-yl) tetrahydro-2H-thiopyran 1,1-dioxide] | 0.407 µM
COc1cc(Nc2ncc3c(n2)N(C)C(c2ccccc2C)CO3)ccc1-n1cnc(C)c1 (racemic) [Example 31] | 0.025 µM
COc1ccc(Cl)c(C2COc3cnc(Nc4ccc(-n5cnc(C)c5)c(OC)c4)nc3N2C)c1 (single isomer, unassigned; (-)) [Example 167B] | 0.075 µM
COc1cc(Nc2ncc3c(n2)N(C)C(c2ccccc2C)CO3)cnc1-n1cnc(C)c1 (single isomer, unassigned; (-)) [Example 171B] | 0.067 µM
CN1c2nc(Nc3ccc(C#N)cc3)ncc2OCC1c1cc(F)cc(F)c1 (single isomer, unassigned; (+)) [Example 233A, (+)-4-((7-(3,5-difluorophenyl)-8-methyl-7,8-dihydro-6H-pyrimido [5,4-b] [1, 4]oxazin-2-yl)amino) benzonitrile] | 0.888 µM
COc1cc(Nc2ncc3c(n2)N(C)C(C2CC(F)(F)C2)CO3)ccc1-n1cnc(C)c1 (single isomer, unassigned; (+)) [Example 212B] | 0.061 µM
COc1cc(Nc2ncc3c(n2)N(C)C(c2cc(Cl)ccc2C(F)(F)F)CO3)ccc1-n1cnc(C)c1 (single isomer, unassigned; (+)) [Example 165A] | 0.089 µM
Cc1cn(-c2ccc(Nc3ncc4c(n3)N3CCCC3CO4)cc2F)cn1 (single isomer, unassigned; (-)) [Example 289B] | 0.157 µM
Cc1cn(-c2ccc(Nc3ncc4c(n3)N(C)[C@@H](CO)CO4)cc2F)cn1 [Example 170, (S)-(2-((3-fluoro-4-(4-methyl-1H-imidazol-1-yl)phenyl)amino)-8-methyl-7,8-dihydro-6H-pyrimido [5,4-b] [1, 4]oxazin-7-yl) methanol] | 1.24 µM
COc1cc(Nc2ncc3c(n2)N(C)C(c2ccc(C(F)(F)F)cc2C(F)(F)F)CO3)ccc1-n1cnc(C)c1 (single isomer, unassigned; (+)) [Example 168B] | 0.076 µM
COc1cc(Nc2ncc3c(n2)N(C)C(c2ccccc2C(F)(F)F)CO3)ccc1-n1cnc(C)c1 (single isomer, unassigned; (-)) [Example 55A] | 0.102 µM
Cc1cn(-c2ccc(Nc3ncc4c(n3)N(C)C(c3cc(F)cc(F)c3)CO4)cc2F)cn1 (racemic) [Example 33] | 0.038 µM
COc1cc(Nc2ncc3c(n2)N(C)C(C2CCOCC2)CO3)ccc1-n1cnc(C)c1 (single isomer, unassigned; (+)) [Example 114B] | 0.077 µM
COc1cc(Nc2ncc3c(n2)N(C)C(c2ccc(F)cc2)CO3)ccc1-n1cnc(C)c1 (single isomer, unassigned; (-)) [Example 49A] | 0.191 µM
Cc1cn(-c2ccc(Nc3ncc4c(n3)N(C)C(c3cc(F)cc(F)c3)CO4)cc2)cn1 (single isomer, unassigned; (-)) [Example 23A] | 2.04 µM
Cc1cc(-c2ccc(Nc3ncc4c(n3)N(C)C(c3cc(F)c(F)c(F)c3)CO4)cc2F)ccn1 (racemic) [Example 36] | 0.162 µM
Cc1cn(-c2ccc(Nc3ncc4c(n3)N(C)C(c3ccc(F)cc3Cl)CO4)cc2F)cn1 (single isomer, unassigned; (-)) [Example 101B] | 0.685 µM
Cc1cn(-c2ccc(Nc3ncc4c(n3)N(C)C(c3ccc(F)cc3C(F)(F)F)CO4)cc2F)cn1 (single isomer, unassigned; (-)) [Example 99B] | 1.04 µM
COc1cc(Nc2ncc3c(n2)N(C)C2(CCOCC2)CO3)cnc1-n1cnc(C)c1 [Example 274] | 0.295 µM
COc1cc(Nc2ncc3c(n2)N(C)C(CC(F)(F)F)CO3)ccc1-n1cnc(C)c1 (single isomer, unassigned; (+)) [Example 172B] | 0.054 µM
Cc1cn(-c2ccc(Nc3ncc4c(n3)N(C)C(c3ccccc3C)CO4)cc2F)cn1 (racemic) [Example 34] | 0.044 µM
